{
  "source": "patent US20210008083A1",
  "about": "“USE OF A BISPHOSPHONATE SALT IN A MEDICAMENT FOR A NATURALLY OCCURRING DISEASE/DISORDER IN A MAMMAL” (Ostafit B.V., priority 2016, published 2021)",
  "key": {"hip osteoarthritis": {"tested_on": "hip osteoarthritis", "details": "oral 35 mg once a week, 2 years; cited from earlier work"}, "[1]": {"tested_on": "osteoarthritis in the SI joint", "details": "one donkey, treated in line with the horses", "protocol": "(§1) The following experiments were performed during November 2015-May 2016. In various veterinarian locations in the Netherlands the animals were treated or occasionally the animals were treated on a farm in a stable.\nOne donkey was treated in line with the horses above."}, "[2]": {"tested_on": "osteoarthritis or similar complaints", "protocol": "as §1\nFor cats it is preferred to provide the dosage in a subcutaneous manner."}, "[3]": {"tested_on": "osteoarthritis or similar complaints", "details": "24 dogs, 5-15 years, 0.20 mg/kg intravenous during about 15 min", "protocol": "as §1\n(§2) Typical symptoms for dogs and other animals mentioned in the description are lameness, stiffness, especially in the morning, after a stroll and when starting, moving with relatively short steps, a preference for lying down, no stamina, various difficulties/limitations, such as in rising or lying down, in keeping up walking pace, rising a leg, jumping on a couch, tail between the legs and squealing from pain."}, "osteoarthritis": {"tested_on": "osteoarthritis", "details": "1 bull, 6 years, 0.2 mg/kg intravenous", "protocol": "as §1"}, "primary osteoarthritis": {"tested_on": "primary osteoarthritis", "details": "guinea pig model of primary osteoarthritis; cited from earlier work"}, "[4]": {"tested_on": "various disorders and disease", "assay": "Present bisphosphonates tested on various naturally occurring disorders and diseases in mammals", "parameters": "species or system mammals (horses, donkeys, cows, dogs and cats)", "details": "dog, in vivo", "excerpt": "A repetition may be given after 4-12 months. […] In general it is noted that timing of potential benefit of antiresorptives in OA might be important. The greatest benefit in the prior art is typically seen very early in the disease. So to maintain the normal attitude mode, typically once per 1-12 month, preferably once per 2-6 months, such as once per 3-5 month, or put different 1-6 times per year, preferably 2-6 times per year, such as 3-4 times per year.\nFor better understanding of these diseases and disorders, the following section is added, such as to categorize these.\nas §2"}, "knee osteoarthritis": {"tested_on": "knee osteoarthritis", "details": "2-year period; cited from earlier work"}},
  "data": [
    {"compound": "NCCCC(O)(P(=O)(O)O)P(=O)(O)O.O.O.O", "note": "[Alendronate, [4-amino-1-hydroxy-1-(hydroxy-oxido-phosphoryl)-butyl]phosphonic acid trihydrate]", "values": [
      {"measurement": "clinical efficacy on pain", "setting": "hip osteoarthritis", "value": "had clinical efficacy of pain reduction"},
      {"measurement": "effect on structural progression of hip osteoarthritis", "setting": "hip osteoarthritis", "value": "failed to show preventive effects for structural progression of hip osteoarthritis"},
      {"measurement": "result of treatment in donkey", "setting": "[1]", "value": "results here were fine"},
      {"measurement": "cats free of complaints", "setting": "[2]; eight cats, 12-18 years, 0.2 mg/kg subcutaneous or intravenous, one cat still had complaints (other medicines withdrawn)", "value": "Seven cats were free of complaints within a few weeks"},
      {"measurement": "cats showing a good response (substantially free of complaints)", "setting": "[2]; later experiments on more cats", "value": "more than 75%"},
      {"measurement": "complaints of dogs after treatment", "setting": "[3]", "value": "All dogs have significantly less complaints or were free of complaints within a few weeks"},
      {"measurement": "bull free of complaints", "setting": "osteoarthritis", "value": "free of complaints within a month"},
      {"measurement": "effect on disease progression", "setting": "primary osteoarthritis", "value": "Risedronate but not Alendronate slows disease progression"},
      {"measurement": "outcome of testing on various disorders and disease", "setting": "[4]", "value": "tested on various disorders and disease with success"}
    ]},
    {"compound": "CCCCCN(C)CCC(O)(P(=O)(O)O)P(=O)(O)O", "note": "[Ibandronate]", "values": [
      {"measurement": "outcome of testing on various disorders and disease", "setting": "[4]", "value": "tested on various disorders and disease with success"}
    ]},
    {"compound": "NCCCCCC(O)(P(=O)(O)O)P(=O)(O)O", "note": "[Nerodronate]", "values": [
      {"measurement": "outcome of testing on various disorders and disease", "setting": "[4]", "value": "tested on various disorders and disease with success"}
    ]},
    {"compound": "CN(C)CCC(O)(P(=O)(O)O)P(=O)(O)O", "note": "[Olpadronate]", "values": [
      {"measurement": "outcome of testing on various disorders and disease", "setting": "[4]", "value": "tested on various disorders and disease with success"}
    ]},
    {"compound": "NCCC(O)(P(=O)(O)O)P(=O)(O)O", "note": "[Pamidronate]", "values": [
      {"measurement": "outcome of testing on various disorders and disease", "setting": "[4]", "value": "tested on various disorders and disease with success"}
    ]},
    {"compound": "O=P(O)(O)C(O)(Cc1cccnc1)P(=O)(O)O", "note": "[Risedronate]", "values": [
      {"measurement": "symptom improvement or progression of radiographic osteoarthritis vs placebo", "setting": "knee osteoarthritis", "value": "no significant differences in symptom improvement or progression of radiographic osteoarthritis"},
      {"measurement": "effect on disease progression", "setting": "primary osteoarthritis", "value": "slows disease progression"},
      {"measurement": "outcome of testing on various disorders and disease", "setting": "[4]", "value": "tested on various disorders and disease with success"}
    ]},
    {"compound": "O=P(O)(O)C(O)(Cn1ccnc1)P(=O)(O)O", "note": "[Zoledronate]", "values": [
      {"measurement": "outcome of testing on various disorders and disease", "setting": "[4]", "value": "tested on various disorders and disease with success"}
    ]}
  ]
}
